Data as given in patent US12599666B2, “Photolytic compounds and triplet-triplet annihilation mediated photolysis” (University of Massachusetts, priority 2019, dated 2026).
Where “and” joins values, the source holds several entries; their conditions need not be identical. Identical values can stand only once. Like-named read-outs stand apart in the source and are kept apart here. Marks after values point to notes of the source that are not given here.

Experiments:
[1] = Photolytic molecule experiment: TTAP photolytic reaction in solution under LED, HPLC yield; format: physicochemical
Experimental: Photolytic molecule experiment: The NIR LED (720 nm), far red LED (650 nm), green LED (530 nm), blue LED (476 nm) and deep blue (455 nm) were used for photolytic reactions. […] Then, the solution was excited with a LED (20 mW/cm^2) at 37° C. After the photolytic reaction, the raw product was dried and re-dissolved in CH3CN/H2O=(2/1, v/v) and HPLC was used to analyze the yield of product.

[2] = Stern-Volmer photoluminescence quenching of photosensitizers by PPGs-X; format: physicochemical
Experimental: The Stern-Volmer quenching plots experiment (ksv): photoluminescence of photosensitizers (PtTNP, PdTPBP, PtOEP, and Ir(ppy)3) in the presence of different concentrations of PPGs (BDP, perylene, anthracene and coumarin). The mixed solutions were degassed for at least 15 min with Ar in toluene. The ksv constants were calculated with eq 1, where 1o and It stand for photoluminescence intensity of photosensitizer in the absence of PPGs-X and the photoluminescence intensity of photosensitizer in the presence PPGs-X. Q is the concentration of PPGs-X. Biomolecular quenching constants (kq) were calculated by eq2. The Tr is the phosphorescence lifetime of photosensitizer in argon.

[3] = Photocleavage quantum yield / photolytic quantum efficiency calculation
From the text: We compared photolytic quantum efficiency of the widely used PPG of Cou by using the UCNPs as phototransducer.

[4] = PPGs; from the literature; listed as Py; cited from earlier work
[5] = TTA upconversion quantum yield; format: physicochemical
Experimental: The upconversion quantum yields (ΦUC): The upconversion quantum yields were calculated with the eq 3, where ΦUC and Φstd stand for upconversion luminescence quantum yield of sample TTA-UC and fluorescence quantum yield of reference compounds, respectively. Aunk and Astd stand for absorbance of the TTA-UC and reference compound, respectively. Iunk and Istd stand for integrated upconversion luminescence intensity of the TTA-UC and fluorescence intensity of reference compounds, respectively. ηunk and μstd stand for the refractive index of water. The equation is multiplied by a factor of 2 to make the maximum quantum yield of two unified emitters.
The upconversion experiments were deaerated with argon for ca. 15 min before measurement and the argon gas flow was kept during the measurement.

[6] = Photophysical parameters of Sen and PPGs (UV-vis absorption, emission, energy levels); format: physicochemical; parameters: λabs maximum absorption wavelength / λem maximum emission wavelength: unit not given here
Experimental: Characterization: ^1H NMR spectra were recorded with a Bruker 500 MHz spectrometer. UV-Vis spectra were recorded on an Agilent Cary-5 spectrophotometer. Steady-state fluorescence spectra were measured on a HITACHI F-7000 spectrometer. […] The sample for TEM measurement was prepared by dropping the solution onto a carbon-coated copper grid following negative staining with 2.0% (w/v) phosphotungstic acid. The particle size and size distribution were measured by using dynamic light scattering (DLS) on a Malvern Nano-ZS particle size analyzer, excitation wavelength 532 nm. All samples in the Stern-Volmer quenching plots experiments were deaerated with argon for ca. 15 min before measurement and the gas flow was maintained during the measurements. For the TTA upconversion spectra measurement, the diode pumped solid-state laser (650 nm, continues wave, CW, Hi-Teach company, China) was used as the excitation light source and a modified spectrofluorometer was used to record the upconversion spectra. For the prodrug photolytic experiment, an All LED (Mightex Company) was used as the excitation light source.
From the absorption and emission spectra of Sen and PPGs, the triplet and singlet energy levels of PPG and Sen can be calculated. The maximum emission wavelength of phosphorescence is the triplet excited state energy level (T1) of the Sen. The maximum emission wavelength of fluorescence is the singlet excited state energy level (S1) of the PPGs. Moreover, according to the literature, we know the triplet excited energy levels of PPGs. The detail information is always in […]

CC(=O)OCc1ccc2c3cccc4cccc(c5cccc1c52)c43 [compound 8]
photolytic yield [1]: 70% | Yield (HPLC) of photolytic reaction ([1]; PdTPBP, air, room light, 60 min): No reaction | Yield (HPLC) of photolytic reaction ([1]; PdTPBP, argon, room light, 60 min): No reaction | Yield (HPLC) of photolytic reaction ([1]; PdTPBP, dark, argon, 1 h): No reaction | photolytic yield ([1]; PdTPBP, far-red LED light (20 mW/cm^2, 650 nm)): 87% and 87.1% | Yield (HPLC) of photolytic reaction ([1]; PdTPBP, light, air, 1 h): No reaction | Yield (HPLC) of photolytic reaction ([1]; PdTPBP, light, argon, 1 h): 87.1% | photolytic yield ([1]; PtTNP, NIR LED light (20 mW/cm^2, 720 nm, 1 h)): 14.7% | Yield (HPLC) of photolytic reaction ([1]; PtTNP, dark, argon, 1 h): No reaction | Yield (HPLC) of photolytic reaction ([1]; PtTNP, light, air, 1 h): No reaction | Yield (HPLC) of photolytic reaction ([1]; PtTNP, light, argon, 1 h): 14.7% | Yield (HPLC) of photolytic reaction ([1]; compound only (no PdTPBP), far red light, argon, 1 h): No reaction | Yield (HPLC) of photolytic reaction ([1]; compound only (no PtTNP), NIR light, argon, 1 h): No reaction | Yield (HPLC) of photolytic reaction ([1]; compound only, air, blue light (445 nm, 20 mW/cm^2), 60 min): 59% | Yield (HPLC) of photolytic reaction ([1]; compound only, air, dark, 60 min): No reaction | Yield (HPLC) of photolytic reaction ([1]; compound only, air, room light, 60 min): No reaction | quenching of the photoluminescence of PdTPBP ([2]; PdTPBP): obvious quenching effects | ksv (bimolecular quenching constant) ([2]; PdTPBP as sensitizer): 1.09 × 10^9 g M^−1S^−1 | ksv Stern-Volmer quenching constant ([2]; PdTPBP as sensitizer): 243000 g/M | quenching of the photoluminescence of PtOEP ([2]; PtOEP): significant quenching | ksv (bimolecular quenching constant) ([2]; PtOEP as sensitizer): 2.9 × 10^9 j M^−1S^−1 | ksv Stern-Volmer quenching constant ([2]; PtOEP as sensitizer): 262000 J/M | quenching of the photoluminescence of PtTNP ([2]; PtTNP): quenching effect | increase of ηp (TTAP) over ηp (direct) ([3]; PdTPBP): 282% | ε2 × Φp: ε (Sen) × Φp (PPGs); ηp (TTAP) ([3]; PdTPBP as sensitizer): 10230 ^g | ε2 × Φp: ε (Sen) × Φp (PPGs); ηp (TTAP) ([3]; PdTPBP as sensitizer, listed as Py): 10230 | increase of ηp (TTAP) over ηp (direct) ([3]; PtOEP): 179% | ε2 × Φp: ε (Sen) × Φp (PPGs); ηp (TTAP) ([3]; PtOEP as sensitizer): 6510 ^j | ε2 × Φp: ε (Sen) × Φp (PPGs); ηp (TTAP) ([3]; PtOEP as sensitizer, listed as Py): 6510 | increase of ηp (TTAP) over ηp (direct) ([3]; PtTNP): 342% | ε2 × Φp: ε (Sen) × Φp (PPGs); ηp (TTAP) ([3]; PtTNP as photosensitizer): 12400^h | ε2 × Φp: ε (Sen) × Φp (PPGs); ηp (TTAP) ([3]; PtTNP as photosensitizer, listed as Py): 12400 | ε1 × Φp: ε (PPGs) × Φp (PPGs); ηp (direct) ([3]; direct short wavelength illumination): 3627 | T1 triplet excited state [4]: 1.52 ^m eV and 1.52 eV | upconversion quantum yield ([5]; paired with PdTPBP): 5.8% | upconversion quantum yield ([5]; paired with PtOEP): 9.5% | upconversion quantum yield ([5]; paired with PtTNP): 0.05% | 2 × T1 − S1 ([6]; PPGs): 0.26 eV | S1 singlet excited state ([6]; PPGs, from maximum fluorescence emission): 2.78 eV | λabs maximum absorption wavelength ([6]; in toluene, 10 μM): 440 | λem maximum emission wavelength ([6]; in toluene, 10 μM): 445 | ξ molar extinction coefficient ([6]; in toluene, 10 μM): 4.0 10^4 M^−1 cm^−1
